The values below come from article PMC5440690, “Sirt1 carboxyl-domain is an ATP-repressible domain that is transferrable to other proteins” (Nature Communications, 2017).

The target of one experiment is T1, 2A Sirt1 (Mus musculus, UniProt Q923E4, S649A/S651A).
T1 construct: full-length recombinant 2A Sirt1
T1 sequence (Q923E4 1-737 S649A/S651A): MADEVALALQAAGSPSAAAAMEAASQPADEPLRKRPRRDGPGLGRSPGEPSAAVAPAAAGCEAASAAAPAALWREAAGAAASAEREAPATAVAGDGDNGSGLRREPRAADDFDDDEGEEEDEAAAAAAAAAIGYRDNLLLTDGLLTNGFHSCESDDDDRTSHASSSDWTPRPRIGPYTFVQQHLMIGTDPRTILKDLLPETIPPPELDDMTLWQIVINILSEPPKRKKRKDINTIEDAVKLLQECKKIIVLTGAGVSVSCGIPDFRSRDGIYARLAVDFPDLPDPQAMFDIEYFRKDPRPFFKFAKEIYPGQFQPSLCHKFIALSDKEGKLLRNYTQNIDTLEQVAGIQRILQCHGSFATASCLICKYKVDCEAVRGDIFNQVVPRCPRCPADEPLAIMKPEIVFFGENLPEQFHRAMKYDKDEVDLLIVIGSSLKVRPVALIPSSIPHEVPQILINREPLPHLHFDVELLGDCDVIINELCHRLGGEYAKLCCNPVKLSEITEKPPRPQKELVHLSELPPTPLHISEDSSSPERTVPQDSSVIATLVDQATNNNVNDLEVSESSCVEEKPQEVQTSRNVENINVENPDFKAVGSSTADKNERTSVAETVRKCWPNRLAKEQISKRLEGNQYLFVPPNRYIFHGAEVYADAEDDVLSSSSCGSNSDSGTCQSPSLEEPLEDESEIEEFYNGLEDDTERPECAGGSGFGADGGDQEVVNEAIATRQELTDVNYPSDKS
The experiment can be described thus: deacetylation of [3H]Ac-H4, inhibition kinetics (Kii); weakened ATP-agarose binding. The experiment is classed as biochemical.

A further experiment deals with T2, Sirt1 (Mus musculus, UniProt Q923E4).
T2 construct: full-length recombinant Sirt1
T2 sequence (Q923E4 2-737): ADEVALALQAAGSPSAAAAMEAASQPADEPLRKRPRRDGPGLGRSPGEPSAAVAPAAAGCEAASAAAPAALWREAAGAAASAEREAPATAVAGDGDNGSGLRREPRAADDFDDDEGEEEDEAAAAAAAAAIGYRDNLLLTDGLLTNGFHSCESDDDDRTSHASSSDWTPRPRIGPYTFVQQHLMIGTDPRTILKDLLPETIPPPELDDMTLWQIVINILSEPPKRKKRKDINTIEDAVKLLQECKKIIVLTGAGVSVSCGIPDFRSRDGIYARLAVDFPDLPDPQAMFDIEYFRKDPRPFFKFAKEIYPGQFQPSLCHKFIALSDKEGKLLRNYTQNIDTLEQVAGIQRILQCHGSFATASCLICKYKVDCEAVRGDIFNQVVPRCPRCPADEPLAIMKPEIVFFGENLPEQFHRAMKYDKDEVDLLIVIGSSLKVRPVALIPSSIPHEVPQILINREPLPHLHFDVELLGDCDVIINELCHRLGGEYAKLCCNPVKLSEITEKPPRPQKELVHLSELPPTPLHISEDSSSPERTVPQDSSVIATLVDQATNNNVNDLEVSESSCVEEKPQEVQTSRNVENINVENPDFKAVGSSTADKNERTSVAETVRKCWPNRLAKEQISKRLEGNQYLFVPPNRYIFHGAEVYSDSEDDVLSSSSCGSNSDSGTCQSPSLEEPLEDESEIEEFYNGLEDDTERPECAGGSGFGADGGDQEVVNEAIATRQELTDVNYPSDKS
The experiment can be described thus: gel-filtration (spin column) binding with [γ-32P]ATP; also ATP-agarose pull-down with free ATP competition, and enzyme inhibition.

By Ki is commonly meant a measure of affinity in units of concentration, obtained from inhibition or displacement. Low values mean a stronger hold on the target, high ones a looser hold on the target. A word on the Kd: it is the equilibrium constant for the complex coming apart. High values mean a looser complex, low ones a tighter complex. On 2A Sirt1, `Nc1ncnc2c1ncn2[C@@H]1O[C@H](COP(=O)(O)OP(=O)(O)OP(=O)(O)O)[C@@H](O)[C@H]1O` [ATP] yielded a Ki of 6.45 ± 0.51 mM. Moreover, the Kd on Sirt1 was around 4.6 mM.
